Data: publication PMC2680961, “Homologous desensitization of signalling by the alpha (α) isoform of the human thromboxane A2 receptor: A specific role for nitric oxide signalling” (Biochimica et Biophysica Acta, 2007)
Numbering of substitutions follows the chain as printed.

Columns and labels:
[1] = biological target: T1, TPα^T337A (Homo sapiens, UniProt P21731, T337A); test: [3H]SQ29,548 radioligand binding, Scatchard analysis, HEK.TPα^T337A
T1 construct: expressed in transfected cells
T1 sequence (P21731 1-343 T337A): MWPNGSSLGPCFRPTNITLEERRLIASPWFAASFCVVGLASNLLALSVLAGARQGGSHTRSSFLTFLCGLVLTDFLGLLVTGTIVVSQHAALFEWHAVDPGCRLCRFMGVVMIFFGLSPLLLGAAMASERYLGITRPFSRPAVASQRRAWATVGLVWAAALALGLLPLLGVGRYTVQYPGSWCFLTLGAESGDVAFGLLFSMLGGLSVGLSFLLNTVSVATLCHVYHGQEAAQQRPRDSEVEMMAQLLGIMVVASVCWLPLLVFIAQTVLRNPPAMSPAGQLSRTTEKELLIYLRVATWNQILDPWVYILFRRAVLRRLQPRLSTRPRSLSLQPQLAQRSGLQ
Experimental: Cells were harvested by centrifugation at 500×g at 4 °C for 5 min and washed three times with ice-cold Ca^2+/Mg^2+-free phosphate-buffered saline (PBS). TP radioligand binding assays were carried out at 30 °C for 30 min in 100 μl reactions in the presence of 0–40 nM [^3H] […] Protein determinations were carried out using the Bradford assay.
Radioligand binding and Scatchard analysis data were analysed using GraphPad Prisim V4.0 programme (GraphPad Software Inc., San Diego CA, USA). Statistical analyses were carried out using the unpaired Student's t test using the Statworks Analysis Package. p-values ≤ 0.01 indicated statistically significant differences.

[2] = biological target: T2, TPα^S145A (Homo sapiens, UniProt P21731, S145A); test: Intracellular calcium mobilization, HEK.TPα^S145A cells; type: cell-based; details: for Δ[Ca2+]i, U46619-induced: HEK.TPα^S145A
T2 construct: expressed in transfected cells
T2 sequence (P21731 1-343 S145A): T1 sequence (P21731 1-343 T337A) with S145A, A337T
Experimental: (§1) Measurement of intracellular calcium mobilization ([Ca^2+]i) in FURA2/AM preloaded HEK 293 cell lines (2 × 10^6 cells/dish), each transiently co-transfected with pADVA (10 μg), and pCMV:Gαq (25 μg), was carried out as previously described. To investigate the effect of GRK2/βARK1 on TP-mediated [Ca^2+]i mobilization, HEK.TPα or HEK.TPβ cells (2 × 10^6 cells/dish) were co-transfected with pADVA (10 μg), pCMV:Gαq (25 μg) along with pRK5:βARK1^495–689 (25 μg), encoding a dominant negative form of GRK2/βARK1[39]. Approximately 48 h post-transfection, cells were harvested by scraping, washed twice in ice-cold PBS and resuspended in HBSSHB (modified Ca^2+/Mg^2+-free Hank's buffered salt solution, containing 10 μM HEPES, pH 7.67, 0.1% bovine serum albumin (BSA)) buffer at 10^7 cells/ml and incubated in the dark with 5 μM FURA2/AM for 45 min at 37 °C. […] For each measurement of [Ca^2+]i mobilization, aliquots of cells were diluted to 0.825 × 10^6 cells/ml in HBSSHB, 1 mM CaCl2 and FURA2 fluorescence was recorded (2 ml aliquots of cells) at 37^ °C with gentle stirring with a Perkin Elmer-Cetus LS50-B spectrofluorometer at excitation wavelengths of 340 nm and 380 nm and emission wavelength of 510 nm, respectively.
Cells were stimulated with the TP agonist U46619 (1 μM) and changes in [Ca^2+]i mobilization were monitored as a function of time. To assess agonist-mediated homologous desensitization, cells (0.825 × 10^6 cells/ml; 2 ml per assay) were stimulated with 1 μM U46619 (Primary stimulation) or, as a control, with the vehicle for 4 min; thereafter, cells were collected by centrifugation (900×g, 5 min); were washed twice in 2 ml HBSSHB, 1 mM CaCl2; and finally resuspended in 2 ml HBSSHB,1 mM CaCl2 and were left to recover over various time intervals (ranging from 0 to 60 min); thereafter, cells re-stimulated with 1 μM U46619 (Secondary stimulation) and changes in [Ca^2+]i mobilization were monitored as a function of time. […]

[3] = biological target: T3, TPα^S329A (Homo sapiens, UniProt P21731, S329A); test: Intracellular calcium mobilization, HEK.TPα^S329A cells; type: cell-based
T3 construct: expressed in transfected cells
T3 sequence (P21731 1-343 S329A): T1 sequence (P21731 1-343 T337A) with S329A, A337T
Experimental: as §1, with “GRK2/βARK1[39].” for “GRK2/βARK1[39]. Approximately 48 h post-transfection, cells were harvested by scraping, washed twice in ice-cold PBS and resuspended in HBSSHB (modified Ca^2+/Mg^2+-free Hank's buffered salt solution, containing 10 μM HEPES, pH 7.67, 0.1% bovine serum albumin (BSA)) buffer at 10^7 cells/ml and incubated in the dark with 5 μM FURA2/AM for 45 min at 37 °C.”
Cells were stimulated with the TP agonist U46619 (1 μM) and changes in [Ca^2+]i mobilization were monitored as a function of time. […]
The vehicle had no effect on U46619-mediated [Ca^2+]i mobilization. Calibration of the signal was performed in each sample by adding 0.2% Triton X-100 to obtain the maximal fluorescence ratio (Rmax) and then 1 mM EGTA to obtain the minimal fluorescence ratio (Rmin). […]

[4] = secondary 1 μM U46619 at 15 min

Row | Bmax (pmol/mg protein ± S.E.M.) [1] | Δ[Ca2+]i, U46619-induced ([2]; primary 1 μM U46619 4 min) | Δ[Ca2+]i, U46619-induced [2, 4] | secondary U46619 [Ca2+]i response relative to primary response ([2]; TPα^S145A) | Δ[Ca2+]i, U46619-induced ([3]; primary 1 μM U46619 4 min) | Δ[Ca2+]i, U46619-induced [3, 4] | Compound
1 | 4.23 ± 0.04 pmol/mg protein | – | – | – | – | – | O=C(O)CCC/C=C\C[C@@H]1[C@H](CNNC(=O)Nc2ccccc2)[C@H]2CC[C@@H]1O2 [SQ29,548]
2 | – | 157 ± 3.8 nM | 37 ± 4.2 nM | 24% | 228 ± 7.7 nM | 0 nM | CCCCC[C@H](O)/C=C/[C@@H]1[C@@H](C/C=C\CCCC(=O)O)[C@H]2CO[C@@H]1C2 [U46619]
